Among the data in patent publication US11254663B2 (BRISTOL-MYERS SQUIBB COMPANY, priority 2019, dated 2022) are EC50 values, retold here.

Structures are written as SMILES. Where two headings read alike, the source gives them in different places.

The test concerns the target FXR (Homo sapiens (Human), UniProt Q96RI1). Briefly: transient human FXR/Gal4-luciferase reporter assay. The format is cell-based. The gist of the method:
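HEK293 cells stably carrying a 5×Gal4 response element–firefly luciferase reporter were transiently transfected overnight with a Gal4 DBD–human FXR LBD fusion plasmid. Compound was added in DMSO and cells were incubated overnight at 37 °C, 5% CO2. Activity was read as Steady-Glo luminescence.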

[1] abbreviates: Gal4-hFXR fusion construct, HEK293 reporter cells, response relative to 8 μM GW-4064.

Sequence of FXR (Q96RI1 262-486): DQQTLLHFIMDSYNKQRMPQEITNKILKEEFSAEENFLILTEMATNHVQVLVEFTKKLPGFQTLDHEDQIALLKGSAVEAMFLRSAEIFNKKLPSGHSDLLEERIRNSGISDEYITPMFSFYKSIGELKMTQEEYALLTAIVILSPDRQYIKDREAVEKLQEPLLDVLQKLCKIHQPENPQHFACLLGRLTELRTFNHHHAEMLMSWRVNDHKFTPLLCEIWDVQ

As for `CO[C@H]1C[C@@H](C(=O)N(CC23CCC(c4noc(C(C)(C)C)n4)(CC2)CC3)c2cccc(-c3ccc(NS(C)(=O)=O)cc3)c2)C1` [Example 514, (1S,3S)—N-((4-(5-(tert-butyl)-1,2,4-oxadiazol-3-yl)bicyclo[2.2.2]octan-1-yl)methyl)-3-methoxy-N-(4′-(methylsulfonamido)-[1,1′-biphenyl]-3-yl)cyclobutane-1-carboxamide], a half-maximal effect under setting [1] (EC50) was put at 2260 nM. `CC(C)(O)c1ccc(-c2cccc(N(CC34CCC(c5noc(C(C)(C)F)n5)(CC3)CC4)C(=O)NCCN3CCOCC3)c2)cc1` [Example 649, 1-((4-(5-(2-fluoropropan-2-yl)-1,2,4-oxadiazol-3-yl)bicyclo[2.2.2]octan-1-yl)methyl)-1-(4′-(2-hydroxypropan-2-yl)-[1,1′-biphenyl]-3-yl)-3-(2-morpholinoethyl)urea]: the EC50 came to 600 nM. Still for that read-out and setting: the figure for `CC(C)(C)c1nc(C23CCC(CN(C(=O)C45CC(F)(C4)C5)c4cncc(-c5ccc(OC(F)F)cc5)c4)(CC2)CC3)no1` [Example 483, N-((4-(5-(tert-butyl)-1,2,4-oxadiazol-3-yl)bicyclo[2.2.2]octan-1-yl)methyl)-N-(5-(4-(difluoromethoxy)phenyl)pyridin-3-yl)-3-fluorobicyclo[1.1.1]pentane-1-carboxamide] is 255 nM. `CCOc1ccc(-c2cccc(N(CC34CCC(c5noc(C6(C)CC6)n5)(CC3)CC4)C(=O)C34CC(F)(C3)C4)c2)cc1` [Example 399, N-(4′-ethoxy-[1,1′-biphenyl]-3-yl)-3-fluoro-N-((4-(5-(1-methylcyclopropyl)-1,2,4-oxadiazol-3-yl)bicyclo[2.2.2]octan-1-yl)methyl)bicyclo[1.1.1]pentane-1-carboxamide] yielded a concentration giving a half-maximal response (EC50) under setting [1] of 58 nM. The same measure, in the same setting: the figure for `CC(C)c1noc(C23CCC(CN(C(=O)C45CC(F)(C4)C5)c4cccc(-c5ccc(NS(C)(=O)=O)cc5)c4)(CC2)CC3)n1` [Example 376, 3-fluoro-N-((4-(3-isopropyl-1,2,4-oxadiazol-5-yl)bicyclo[2.2.2]octan-1-yl)methyl)-N-(4′-(methylsulfonamido)-[1,1′-biphenyl]-3-yl)bicyclo[1.1.1]pentane-1-carboxamide] is 32 nM. The same measure, in the same setting: the figure for `O=C(N(CC12CCC(c3nc(C4CC4)no3)(CC1)CC2)c1cccc(-c2cccc(C(F)(F)F)c2)c1)C12CC(F)(C1)C2` [Example 252, N-((4-(3-cyclopropyl-1,2,4-oxadiazol-5-yl)bicyclo[2.2.2]octan-1-yl)methyl)-3-fluoro-N-(3′-(trifluoromethyl)-[1,1′-biphenyl]-3-yl)bicyclo[1.1.1]pentane-1-carboxamide] is 833 nM; for `O=C(N(CC12CCC(c3nc(C4CC4)no3)(CC1)CC2)c1cccc(-c2cnc(C3CC3)nc2)c1)C12CC(F)(C1)C2` [Example 271, N-((4-(3-cyclopropyl-1,2,4-oxadiazol-5-yl)bicyclo[2.2.2]octan-1-yl)methyl)-N-(3-(2-cyclopropylpyrimidin-5-yl)phenyl)-3-fluorobicyclo[1.1.1]pentane-1-carboxamide] it is 23 nM. Same read-out and setting: next, `O=C(N(CC12CCC(c3nc(C4CC4)no3)(CC1)CC2)c1cccc(-c2ccnc(OC3CC3)n2)c1)C12CC(F)(C1)C2` [Example 337, N-(3-(2-cyclopropoxypyrimidin-4-yl)phenyl)-N-((4-(3-cyclopropyl-1,2,4-oxadiazol-5-yl)bicyclo[2.2.2]octan-1-yl)methyl)-3-fluorobicyclo[1.1.1]pentane-1-carboxamide]: 380 nM.

On to `COc1cc(-c2ccnc(N(CC34CCC(c5nc(C6CC6)no5)(CC3)CC4)C(=O)C34CC(F)(C3)C4)c2)ccn1` [Example 340, N-((4-(3-cyclopropyl-1,2,4-oxadiazol-5-yl)bicyclo[2.2.2]octan-1-yl)methyl)-3-fluoro-N-(2′-methoxy-[4,4′-bipyridin]-2-yl)bicyclo[1.1.1]pentane-1-carboxamide], for which, under setting [1], a half-maximal response (EC50) required 398 nM. Same read-out and setting: the figure for `Cc1ccc(-c2cccc(N(CC34CCC(c5nc(C6CC6)no5)(CC3)CC4)C(=O)C34CC(F)(C3)C4)c2)nn1` [Example 295, N-((4-(3-cyclopropyl-1,2,4-oxadiazol-5-yl)bicyclo[2.2.2]octan-1-yl)methyl)-3-fluoro-N-(3-(6-methylpyridazin-3-yl)phenyl)bicyclo[1.1.1]pentane-1-carboxamide] is 839 nM; for `CCOc1ncc(-c2cccc(N(CC34CCC(c5nc(C(C)(C)C)no5)(CC3)CO4)C(=O)C34CC(F)(C3)C4)c2)cn1` [Example 553, N-((4-(3-(tert-butyl)-1,2,4-oxadiazol-5-yl)-2-oxabicyclo[2.2.2]octan-1-yl)methyl)-N-(3-(2-ethoxypyrimidin-5-yl)phenyl)-3-fluorobicyclo[1.1.1]pentane-1-carboxamide] it is 1590 nM; for `CC(=O)Nc1cccc(-c2cccc(N(CC34CCC(c5nc(C6CC6)no5)(CC3)CC4)C(=O)C34CC(F)(C3)C4)c2)c1` [Example 254, N-(3′-acetamido-[1,1′-biphenyl]-3-yl)-N-((4-(3-cyclopropyl-1,2,4-oxadiazol-5-yl)bicyclo[2.2.2]octan-1-yl)methyl)-3-fluorobicyclo[1.1.1]pentane-1-carboxamide] it is 241 nM.

On to `Cc1nc2ccc(-c3ccnc(N(CC45CCC(c6noc(C(C)(C)C)n6)(CC4)CC5)C(=O)C45CC(F)(C4)C5)c3)cc2s1` [Example 537, N-((4-(5-(tert-butyl)-1,2,4-oxadiazol-3-yl)bicyclo[2.2.2]octan-1-yl)methyl)-3-fluoro-N-(4-(2-methylbenzo[d]thiazol-6-yl)pyridin-2-yl)bicyclo[1.1.1]pentane-1-carboxamide], for which the EC50 amounted to 67 nM. `CC(C)Oc1ccc(-c2ccnc(N(CC34CCC(c5noc(C(C)(F)F)n5)(CC3)CC4)C(=O)N3CCOCC3)c2)cc1` [Example 626, N-((4-(5-(1,1-difluoroethyl)-1,2,4-oxadiazol-3-yl)bicyclo[2.2.2]octan-1-yl)methyl)-N-(4-(4-isopropoxyphenyl)pyridin-2-yl)morpholine-4-carboxamide]: the EC50 under setting [1] worked out at 72 nM. Same read-out and setting: next, `CCOc1ncc(-c2cccc(N(CC34CCC(c5noc(C(C)C)n5)(CC3)CC4)C(=O)C34CC(F)(C3)C4)c2)cn1` [Example 429, N-(3-(2-ethoxypyrimidin-5-yl)phenyl)-3-fluoro-N-((4-(5-isopropyl-1,2,4-oxadiazol-3-yl)bicyclo[2.2.2]octan-1-yl)methyl)bicyclo[1.1.1]pentane-1-carboxamide]: 46 nM; `O=C(N(CC12CCC(c3nc(C4CC4)no3)(CC1)CC2)c1cccc(-c2cc(C(F)(F)F)c3ncnn3c2)c1)C12CC(F)(C1)C2` [Example 263, N-((4-(3-cyclopropyl-1,2,4-oxadiazol-5-yl)bicyclo[2.2.2]octan-1-yl)methyl)-3-fluoro-N-(3-(8-(trifluoromethyl)-[1,2,4]triazolo[1,5-a]pyridin-6-yl)phenyl)bicyclo[1.1.1]pentane-1-carboxamide]: 2710 nM; `CC(C)(C#N)Oc1ccc(-c2ccnc(N(CC34CCC(c5ccc(C(C)(F)F)cn5)(CC3)CC4)C(=O)OC(C)(C)C(F)(F)F)c2)cc1` [Example 606, 1,1,1-trifluoro-2-methylpropan-2-yl (4-(4-((2-cyanopropan-2-yl)oxy)phenyl)pyridin-2-yl)((4-(5-(1,1-difluoroethyl)pyridin-2-yl)bicyclo[2.2.2]octan-1-yl)methyl)carbamate]: 95 nM. On the same count and under the same terms, the figure for `CC(C)Oc1ccc(-c2ccnc(N(CC34CCC(c5cc(C(C)(F)F)nn5C)(CC3)CC4)C(=O)OC(C)(C)C(F)(F)F)c2)cc1` [Example 657, 1,1,1-trifluoro-2-methylpropan-2-yl ((4-(3-(1,1-difluoroethyl)-1-methyl-1H-pyrazol-5-yl)bicyclo[2.2.2]octan-1-yl)methyl)(4-(4-isopropoxyphenyl)pyridin-2-yl)carbamate] is 67 nM.

On to `CC(C)(F)c1nc(C23CCC(CN(C(=O)OC4CC(F)(F)C4)c4cc(-c5ccc(OC(F)F)cc5)c(F)cn4)(CC2)CC3)no1` [Example 630, 3,3-difluorocyclobutyl(4-(4-(difluoromethoxy)phenyl)-5-fluoropyridin-2-yl)((4-(5-(2-fluoropropan-2-yl)-1,2,4-oxadiazol-3-yl)bicyclo[2.2.2]octan-1-yl)methyl)carbamate], for which the EC50 under setting [1] was 160 nM. `O=C(N(CC12CCC(c3nc(C(F)F)no3)(CC1)CC2)c1cccc(-c2ccc(OC(F)F)cc2)c1)C12CC(F)(C1)C2` [Example 468, N-(4′-(difluoromethoxy)-[1,1′-biphenyl]-3-yl)-N-((4-(3-(difluoromethyl)-1,2,4-oxadiazol-5-yl)bicyclo[2.2.2]octan-1-yl)methyl)-3-fluorobicyclo[1.1.1]pentane-1-carboxamide] registered an EC50 of 184 nM. Take `N#Cc1cccc(-c2cccc(N(CC34CCC(c5nc(C6CC6)no5)(CC3)CC4)C(=O)C34CC(F)(C3)C4)c2)c1` [Example 258, N-(3′-cyano-[1,1′-biphenyl]-3-yl)-N-((4-(3-cyclopropyl-1,2,4-oxadiazol-5-yl)bicyclo[2.2.2]octan-1-yl)methyl)-3-fluorobicyclo[1.1.1]pentane-1-carboxamide]: a half-maximal effect under setting [1] (EC50) was put at 479 nM. On the same count and under the same terms, the figure for `N#Cc1cc2c(nc1-c1cccc(N(CC34CCC(c5nc(C6CC6)no5)(CC3)CC4)C(=O)C34CC(F)(C3)C4)c1)CCOC2` [Example 328, N-(3-(3-cyano-7,8-dihydro-5H-pyrano[4,3-b]pyridin-2-yl)phenyl)-N-((4-(3-cyclopropyl-1,2,4-oxadiazol-5-yl)bicyclo[2.2.2]octan-1-yl)methyl)-3-fluorobicyclo[1.1.1]pentane-1-carboxamide] is 339 nM; for `Cc1nc2ccc(-c3cccc(N(CC45CCC(c6noc(C(C)(C)C)n6)(CC4)CC5)C(=O)C45CC(F)(C4)C5)c3)cc2s1` [Example 441, N-((4-(5-(tert-butyl)-1,2,4-oxadiazol-3-yl)bicyclo[2.2.2]octan-1-yl)methyl)-3-fluoro-N-(3-(2-methylbenzo[d]thiazol-6-yl)phenyl)bicyclo[1.1.1]pentane-1-carboxamide] it is 68 nM.
